# Experimental data as given in publication PMC11161644, “An effective and rapidly degradable disinfectant from disinfection byproducts” (Nature Communications, 2024).
# “And” between values parts separate entries of the source, which are not always exact repeats. Equal entries are not always repeated. Where two headings read alike, the source gives them in different places.
# What was measured:
# [1] = test system: S. aureus (ATCC 25923); assay: Inactivation of S. aureus (contact time 5 min); type: cell-based, Staphylococcus aureus; conditions: Staphylococcus aureus, ATCC25923, 5 min, pH 7.2, read-out: Log (N/N0), S. aureus; dose 300 mg L-1; pH 7.2; contact time 5 min
# Experimental: (§1) The chemicals and reagents used are detailed in Supplementary Note 1. The bacteria E. coli (ATCC 25922) and S. aureus (ATCC 25923) were cultured aerobically in Luria-Bertani broth (Sigma-Aldrich) and Tryptone Soya broth (Oxoid), respectively, at 37 °C for 16 h. The fungus C. albicans (ATCC 14053) was aerobically cultured in Sabouraud Dextrose broth (Difco) at 37 °C for 24 h. The microorganism cells were harvested by centrifugation at 1200×g (10 min, 4 °C) and resuspended in phosphate-buffered saline (PBS, 10 mM, pH 7.2). The disinfection experiments were performed in PBS solutions (10 mM, pH 7.2) with an initial concentration of E. coli, S. aureus, or C. albicans of 10^6‒10^7 cells per milliliter. A contact time of 5 min was used in accordance with the recommended time range of 0.25–10 min by USEPA for surface disinfection. Preliminary tests were conducted to determine the appropriate range of DBP doses. The appropriate dose range was established when the lowest and highest doses could achieve <1-log and >3-log of microbial inactivation, respectively. Based on the preliminary results, a series of doses of DBPs were added to the cell suspensions at room temperature (22 ± 1 °C). After the contact time of 5 min, the microorganism cells were enumerated following a membrane filter method. Briefly, serial 10-fold dilutions were conducted for the disinfected samples and the control sample without disinfection. Each diluted suspension was subjected to filtration through 0.45-μm membrane, which was then placed on a petri dish. The Petri dishes containing E. coli, S. aureus, and C. albicans were incubated in m-FC medium (Becton Dickinson & Co) at 45 °C for 24 h, in Tryptone Soya broth at 37 °C for 24 h and in Sabouraud Dextrose broth at 37 °C for 24 h, respectively. After incubation, the colony-forming units within a statistically reasonable range (20–80) were counted.
# [2] = Degradation in seawater in darkness (pH 6.2, 7.2, 8.2); conditions: for Ln (C/C0): seawater pH 8.2, darkness
# Experimental: To study the DBP degradation in seawater in darkness, a DBP was added at 10 mg L^−1 to 50 mL pretreated seawater (pH 8.2) in the quartz flasks. The flasks were wrapped with aluminum foil to simulate the dark condition. The samples were kept at 20 °C in darkness for 0‒120 h, during which the sample was adjusted to pH 6.2 and 7.2 or maintained at pH 8.2 by adding 4 mM phosphate buffer (pH 6.2, 7.2, and 8.2, respectively).
# (§2) For the DBP samples with and without sunlight, aliquots were taken at a specific reaction time. The sample aliquots were analyzed using Agilent high-performance liquid chromatography (HPLC) equipped with a Poroshell 120 EC-C18 column (4.6 × 150 mm, 4 µm particle size, Agilent) and a UV detector. The mobile phase, consisting of water (pre-adjusted to pH 2 with phosphoric acid) and acetonitrile at 50/50 (v/v), was applied at a flow rate of 1.0 mL min^−1. PCMX, 2,4-dihalophenols and 5-halosalicylic acids were detected at the wavelength of 230 nm. 2,5-Dihalohydroquinones and 2,6-DCQ were detected at the wavelength of 280 nm. All the degradation experiments were conducted in duplicate.
# [3] = test system: P. dumerilii embryos; assay: Developmental toxicity assay with P. dumerilii embryos, dilution factor of in-use concentration (EC50,DF), also after degradation in darkness; type: in vivo, Platynereis dumerilii
# Source text: The DBP doses for 3-log E. coli reduction (pH 7.2) were set as the in-use concentrations, which were serially diluted and added to the P. dumerilii embryos at 12-h postfertilization. A dilution factor was defined as the ratio of the in-use concentration to the exposure concentration. Each exposure set contained a control sample (i.e., the embryos at 12-h postfertilization developed in seawater without the addition of DBPs). By 24-h postfertilization, normally developed embryos should have reached the first larval stage. An inverted stereomicroscope (×40 magnification) was used to observe the larvae. The normal development percentage was calculated as the ratio of normally developed embryos to total embryos. By plotting the curve of the normal development percentage versus the dilution factor, the EC50,DF value (i.e., the dilution factor corresponding to 50% of the normal development percentage of the control sample) was obtained using SigmaPlot 12. The developmental toxicity test was conducted in duplicate.
# [4] = test system: E. coli (ATCC 25922); assay: Inactivation of E. coli by disinfectants (membrane filter enumeration, contact time 5 min); type: cell-based, Escherichia coli; conditions: for log reduction at 1200 µg/mL / EC (3-log inactivation) / log reduction at 350 µg/mL: Escherichia coli, ATCC25922, 5 min; for log reduction at 1200 µg/mL: dose 1200 mg L-1; for log reduction at 1200 µg/mL / log reduction at 350 µg/mL: 5 min; for EC (3-log inactivation): pH 7.2, read-out: Dose for achieving 3-log inactivation of E. coli; for E. coli inactivation rate constant k: pH 7.2, contact time 5 min; for log reduction at 350 µg/mL: dose 350 mg L-1
# Experimental: as §1
# The impact of pH on the disinfection efficiencies of DBPs was examined. E. coli (ATCC 25922) was used as the test strain. The disinfection experiments were performed in 10 mM PBS solutions (pH 6.2, 7.2, and 8.2) with an initial E. coli concentration of 10^6‒10^7 cells per milliliter. To initiate the disinfection, a DBP was dosed with a bacteria suspension at a predetermined concentration. After the given contact time (5 min) at room temperature (22 ± 1 °C), the bacteria were enumerated following the membrane filter method. The bacteria concentrations in the 10 mM PBS solutions (pH 6.2, 7.2, and 8.2) without the addition of DBPs were used as controls.
# [5] = Degradation in seawater with simulated solar irradiation; conditions: for half-life at 10 mg L−1: buffer, pH 8.2; for Ln (C/C0): seawater pH 8.2, solar irradiation
# Experimental: The solar photolysis experiments were conducted in a chamber equipped with eight simulated sunlight full-spectrum lamps (BlueMax 5900, Full Spectrum Solutions). The temperature in the chamber was maintained at 20 °C. The total intensity of simulated sunlight was determined using a digital photometer (DT-1010B, Shenzhen Golden Octopus, China). Quartz flasks were positioned in the chamber where the total intensity of simulated sunlight was 4.79 ± 0.04 mW cm^−2 for each quartz flask. […] A DBP was added at 10 mg L^−1 to 50 mL pretreated seawater (pH 8.2) in the quartz flasks and exposed to the simulated solar irradiation for 0‒96 h. Every 8 h, the quartz flasks were rotated in and out of the chamber, and the sample volume was determined and adjusted with ultrapure water to account for any water evaporation. During the solar irradiation experiments, the sample was adjusted to pH 6.2 and 7.2 or maintained at pH 8.2 by adding 4 mM phosphate buffer (pH 6.2, 7.2, and 8.2, respectively).
# as §2
# [6] = test system: bacteriophage MS2 (ATCC 15597-B1); assay: Inactivation of bacteriophage MS2 (double-layer agar, contact time 5 min); type: cell-based; conditions: Escherichia phage MS2, ATCC15597, 5 min, pH 7.2, read-out: Log (N/N0), MS2; dose 300 mg L-1; pH 7.2; contact time 5 min
# Experimental: The bacteriophage MS2 (ATCC 15597-B1) was propagated in the host E. coli (ATCC 15597) in Tryptone Soya broth at 37 °C for 16 h. The viruses were separated from the bacterial debris and purified by centrifuging the phage culture (4000×g, 10 min, 4 °C) and filtering the lysate with a 0.2 μm polyethersulfone sterile filter. The filtrate was then diluted in PBS (10 mM, pH 7.2) to an initial MS2 concentration of 10^9‒10^10 plaque-forming units […]. To initiate the disinfection experiments, a series of DBP doses were added to the MS2 suspension at room temperature (22 ± 1 °C). […] Briefly, serial 10-fold dilutions were conducted for the disinfected samples and the control sample without disinfection. Each dilution was mixed with the host E. coli in the soft agar and the mixture was immediately spread onto a Petri dish with Tryptone Soya agar. After the Petri dishes were incubated at 37 °C for 16 h, the plaque-forming units were counted. The disinfection experiments were performed in duplicate. All the materials for the disinfection experiments were autoclaved before use.
# [7] = test system: C. albicans (ATCC 14053); assay: Inactivation of C. albicans (contact time 5 min); type: cell-based, Candida albicans; conditions: Candida albicans, ATCC14053, 5 min, pH 7.2, read-out: Log (N/N0), C. albicans; dose 300 mg L-1; pH 7.2; contact time 5 min
# Experimental: as §1
# [8] = pH 6.2, read-out: Log (N/N0), E. coli, pH 6.2
# [9] = pH 7.2, read-out: Log (N/N0), E. coli, pH 7.2
# [10] = pH 8.2, read-out: Log (N/N0), E. coli, pH 8.2
smiles,measurement,setting,value
"Oc1cc(Cl)c(O)cc1Cl [2,5-DCHQ, 2,5-dichlorohydroquinone]",log reduction at 300 µg/mL,[1],0.434
same,half-life at 10 mg L−1,"[2]; buffer, pH 8.2",7.8 min
same,Relative concentration remaining (1 at 0 min),"[2]; pH 6.2, degradation time 0 min",1
same,Relative concentration remaining (1 at 0 min),"[2]; pH 6.2, degradation time 15 min",1.022 and 0.9793
same,Relative concentration remaining (1 at 0 min),"[2]; pH 6.2, degradation time 30 min",0.9852 and 1.003
same,Relative concentration remaining (1 at 0 min),"[2]; pH 6.2, degradation time 60 min",1.02 and 0.9636
same,Relative concentration remaining (1 at 0 min),"[2]; pH 6.2, degradation time 90 min",0.9949 and 0.9533
same,Relative concentration remaining (1 at 0 min),"[2]; pH 6.2, degradation time 120 min",0.9685 and 0.9533
same,Relative concentration remaining (1 at 0 min),"[2]; pH 6.2, degradation time 180 min",0.9436 and 0.9061
same,Relative concentration remaining (1 at 0 min),"[2]; pH 6.2, degradation time 240 min",0.9109 and 0.8967
same,Relative concentration remaining (1 at 0 min),"[2]; pH 7.2, degradation time 0 min",1
same,Relative concentration remaining (1 at 0 min),"[2]; pH 7.2, degradation time 15 min",0.972 and 0.958
same,Relative concentration remaining (1 at 0 min),"[2]; pH 7.2, degradation time 30 min",0.8774 and 0.8538
same,Relative concentration remaining (1 at 0 min),"[2]; pH 7.2, degradation time 45 min",0.7996 and 0.7512
same,Relative concentration remaining (1 at 0 min),"[2]; pH 7.2, degradation time 60 min",0.6873 and 0.677
same,Relative concentration remaining (1 at 0 min),"[2]; pH 7.2, degradation time 90 min",0.5344 and 0.5155
same,Relative concentration remaining (1 at 0 min),"[2]; pH 7.2, degradation time 120 min",0.3928 and 0.369
same,Relative concentration remaining (1 at 0 min),"[2]; pH 7.2, degradation time 180 min",0.2793 and 0.2513
same,Relative concentration remaining (1 at 0 min),"[2]; pH 8.2, degradation time 0 min",1
same,Relative concentration remaining (1 at 0 min),"[2]; pH 8.2, degradation time 3 min",0.7671 and 0.7343
same,Relative concentration remaining (1 at 0 min),"[2]; pH 8.2, degradation time 8 min",0.4955 and 0.4354
same,Relative concentration remaining (1 at 0 min),"[2]; pH 8.2, degradation time 12 min",0.3245 and 0.3105
same,Relative concentration remaining (1 at 0 min),"[2]; pH 8.2, degradation time 16 min",0.2259 and 0.2074
same,Relative concentration remaining (1 at 0 min),"[2]; pH 8.2, degradation time 20 min",0.1584 and 0.1371
same,Relative concentration remaining (1 at 0 min),"[2]; pH 8.2, degradation time 25 min",0.1047 and 0.0786
same,Ln (C/C0),[2]; 0 min,0
same,Normal development (%),[3]; dilution factor 557.542,8.642% and 6.061%
same,Normal development (%),[3]; dilution factor 1115.08,42.6369% and 40.0555%
same,Normal development (%),[3]; dilution factor 1393.85,77.0891% and 77.2417%
same,Normal development (%),[3]; dilution factor 2787.71,85.5556% and 87.7778%
same,Normal development (%),[3]; dilution factor 5575.42,88.6789% and 83.1961%
same,log reduction at 1200 µg/mL,[4]; [8],2.28
same,EC (3-log inactivation),[4],946 µg/mL
same,log reduction at 1200 µg/mL,[4]; [9],3.73
same,log reduction at 1200 µg/mL,[4]; [10],4.18
same,E. coli inactivation rate constant k,[4],0.05 L mg‒1 h‒1
same,half-life at 10 mg L−1,[5],7.2 min
same,Ln (C/C0),[5]; 0 min,0
"Oc1ccc(Br)cc1Br [2,4-DBPh, 2,4-dibromophenol]",log reduction at 300 µg/mL,[1],0.669
same,Ln (C/C0),[2]; 0 h,0
same,Normal development (%),[3]; dilution factor 11.1486,0%
same,Normal development (%),[3]; dilution factor 13.3783,15.2624% and 20.2196%
same,Normal development (%),[3]; dilution factor 16.7229,45.6306% and 47.4814%
same,Normal development (%),[3]; dilution factor 22.2972,71.5034% and 77.6566%
same,Normal development (%),[3]; dilution factor 33.4458,83.2326% and 85.1374%
same,Normal development (%),[3]; dilution factor 66.8916,89.9171% and 84.7809%
same,Normal development (%),[3]; dilution factor 133.783,89.4695% and 80.5305%
same,log reduction at 300 µg/mL,[6],0.966
same,log reduction at 350 µg/mL,[4]; [8],3.35
same,EC (3-log inactivation),[4],341 µg/mL
same,log reduction at 350 µg/mL,[4]; [9],3.26
same,log reduction at 350 µg/mL,[4]; [10],3.57
same,E. coli inactivation rate constant k,[4],0.28 L mg‒1 h‒1
same,half-life at 10 mg L−1,[5],2100 min
same,Ln (C/C0),[5]; 0 h,0
same,log reduction at 300 µg/mL,[7],1.67
